Consider one compound from ChEMBL document CHEMBL3832047, “DailyMed|setid=077bf6ff-afb8-4cb7-9faa-fbb6fd9f037f | YAZ - drospirenone and ethinyl estradiol|Physicians Total Care, Inc”.

Series [1] relates to Homo sapiens. Nature of the series: (§1) Evaluation pharmacokinetic parameters for Drosporine following multiple co-administration of Drosporine tablets and 0.02 mg ethinyl estradiol to 23 healthy females. The following applies: in vivo, po, dosed compound id 30, dosed compound name DROSPIRENONE, gender female, regimen every 24h, study dosing duration 21 days, tissue Serum. Also noted: dose 3 mg, route oral. The class given is ADME, organism-based.

The nature of series [2]: as §1. The class given is ADME, organism-based. Also noted: dose 3 mg, route oral. As to conditions: human, in vivo, dosed compound id 30, dosed compound name DROSPIRENONE, gender female, regimen every 24h, study dosing duration 21 days, tissue Serum.

What is called Cmax is the maximum level reached in the sampled fluid or tissue. The term Tmax denotes the time from dosing to the highest level. By half-life is commonly meant the time needed for the level to fall by half in the phase considered. Turning to `C[C@]12CCC(=O)C=C1[C@@H]1C[C@@H]1[C@H]1[C@@H]3[C@@H]4C[C@@H]4[C@@]4(CCC(=O)O4)[C@@]3(C)CC[C@@H]12` [DROSPIRENONE], the “AUC(0-24)” value in series [1] (sampling time1 1 day) is 268 ng·h/mL; in series [1] (sampling time1 21 day) it was 763 ng·h/mL. In addition, the Cmax in series [1] (sampling time1 21 day) is 70.3 ng/mL; in series [2] (po, sampling time1 1 day), 38.4 ng/mL. Besides, the Tmax in series [2] (dose 3 mg, route oral, sampling time1 1 day) was in the range of 1 to 2 h. Besides, in series [2] (dose 3 mg, route oral, sampling time1 21 day), the half-life is 30.8 h.
